These results are taken from patent US11981669B2, “1,7-naphthyridine derivative and preparation method and use therefor” (CSPC ZHONGQI PHARMACEUTICAL TECHNOLOGY (SHIJIAZHUANG) CO., …, priority 2018, dated 2024).

Where “and” joins values, the source holds several entries; their conditions need not be identical. Identical values can stand only once. Marks after values point to notes of the source that are not given here.

What is called IC50 is the concentration that inhibits the measured activity by half.

One data set deals with erythropoietin. As to the kind of experiment: Expression of erythropoietin in vivo (plasma EPO ELISA after single oral dose).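 Further: male C57 mice given compound by mouth, five animals per treatment group, with EPO in plasma measured by ELISA.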 Conditions: once, plasma 6 hours after administration. On the technique in general: ELISA stands for enzyme-linked immunosorbent assay.
The next data set deals with CYP1A2 (Homo sapiens (Human), UniProt P05177). It is filed as in vitro ADME. From the text:
(§1) The compounds of the present disclosure were subjected to the CYP450 enzyme inhibition assay.

For a further data set, the target named is CYP2C9 (Homo sapiens (Human), UniProt P11712). The data set is described as follows: CYP enzyme inhibition assay. The class given is in vitro ADME.
Sequence of CYP2C9 (P11712 whole entry): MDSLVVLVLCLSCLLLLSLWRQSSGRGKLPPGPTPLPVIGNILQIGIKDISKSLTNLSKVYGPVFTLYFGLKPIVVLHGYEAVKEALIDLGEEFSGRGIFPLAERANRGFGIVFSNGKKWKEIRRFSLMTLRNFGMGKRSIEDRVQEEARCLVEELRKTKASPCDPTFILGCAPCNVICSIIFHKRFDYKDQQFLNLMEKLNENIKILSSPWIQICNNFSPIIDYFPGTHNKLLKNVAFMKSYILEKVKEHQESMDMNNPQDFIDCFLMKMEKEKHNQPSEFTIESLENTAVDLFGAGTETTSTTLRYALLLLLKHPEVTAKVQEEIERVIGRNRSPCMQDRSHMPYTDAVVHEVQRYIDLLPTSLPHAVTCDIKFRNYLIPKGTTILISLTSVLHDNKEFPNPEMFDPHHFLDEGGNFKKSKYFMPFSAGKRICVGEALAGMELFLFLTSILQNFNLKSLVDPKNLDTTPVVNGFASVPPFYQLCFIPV
Description: as §1

The target of another data set is CYP3A4-M (Homo sapiens (Human), UniProt P08684). As to the kind of experiment: CYP enzyme inhibition assay. The class given is in vitro ADME.
Sequence of CYP3A4-M (P08684 whole entry): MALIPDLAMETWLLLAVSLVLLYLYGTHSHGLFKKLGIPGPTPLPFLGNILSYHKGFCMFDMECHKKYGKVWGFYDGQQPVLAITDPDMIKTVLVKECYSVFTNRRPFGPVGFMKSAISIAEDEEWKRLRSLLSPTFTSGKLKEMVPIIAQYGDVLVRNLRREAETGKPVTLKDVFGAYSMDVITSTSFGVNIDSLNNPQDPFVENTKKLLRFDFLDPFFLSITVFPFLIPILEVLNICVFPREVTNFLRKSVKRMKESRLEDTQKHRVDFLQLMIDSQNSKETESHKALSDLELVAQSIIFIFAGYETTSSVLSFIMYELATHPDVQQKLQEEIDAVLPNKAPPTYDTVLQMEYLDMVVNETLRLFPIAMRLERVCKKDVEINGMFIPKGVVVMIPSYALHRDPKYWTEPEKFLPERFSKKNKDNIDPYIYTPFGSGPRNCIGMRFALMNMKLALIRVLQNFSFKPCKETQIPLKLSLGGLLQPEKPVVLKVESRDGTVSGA
Description: as §1

The target in a further data set is CYP2D6 (Homo sapiens (Human), UniProt P10635). As to the kind of experiment: CYP enzyme inhibition assay. The class given is in vitro ADME.
Sequence of CYP2D6 (P10635 whole entry): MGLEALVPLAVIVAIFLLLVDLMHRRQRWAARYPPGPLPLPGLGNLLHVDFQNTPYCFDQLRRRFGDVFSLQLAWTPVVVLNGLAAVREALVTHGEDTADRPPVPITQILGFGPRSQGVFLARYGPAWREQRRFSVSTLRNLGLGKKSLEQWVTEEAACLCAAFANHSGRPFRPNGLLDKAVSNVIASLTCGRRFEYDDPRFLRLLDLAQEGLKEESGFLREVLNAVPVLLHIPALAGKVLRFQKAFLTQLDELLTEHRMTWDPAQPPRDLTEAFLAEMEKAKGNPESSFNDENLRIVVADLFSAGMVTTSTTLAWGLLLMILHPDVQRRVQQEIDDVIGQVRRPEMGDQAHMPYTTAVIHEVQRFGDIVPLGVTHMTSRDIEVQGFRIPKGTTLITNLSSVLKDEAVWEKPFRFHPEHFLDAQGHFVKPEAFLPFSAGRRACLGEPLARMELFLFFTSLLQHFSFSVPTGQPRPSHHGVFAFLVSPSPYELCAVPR
Description: as §1

For the next data set, the target named is CYP2C19 (Homo sapiens (Human), UniProt P33261). As to the kind of experiment: CYP enzyme inhibition assay. The class given is in vitro ADME.
Sequence of CYP2C19 (P33261 whole entry): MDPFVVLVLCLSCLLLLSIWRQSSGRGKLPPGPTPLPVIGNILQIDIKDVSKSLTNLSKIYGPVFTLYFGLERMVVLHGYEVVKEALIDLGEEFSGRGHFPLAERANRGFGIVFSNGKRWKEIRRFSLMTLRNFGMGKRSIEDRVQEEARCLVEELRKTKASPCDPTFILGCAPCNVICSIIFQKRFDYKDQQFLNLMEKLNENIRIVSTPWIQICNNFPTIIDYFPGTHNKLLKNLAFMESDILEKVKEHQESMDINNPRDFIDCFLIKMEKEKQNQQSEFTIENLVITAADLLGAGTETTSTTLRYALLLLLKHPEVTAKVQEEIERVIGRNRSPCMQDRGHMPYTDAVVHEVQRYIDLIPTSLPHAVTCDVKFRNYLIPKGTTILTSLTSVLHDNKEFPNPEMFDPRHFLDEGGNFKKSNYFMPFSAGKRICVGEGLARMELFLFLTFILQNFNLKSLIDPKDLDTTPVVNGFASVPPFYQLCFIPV
Description: as §1

Another data set has as its system reticulocytes. As to the kind of experiment: Effect on reticulocytes of normal mice. Further details: Reticulocytes (RETIC), average: unit not given here. It is filed as in vivo, Balb/c mice. The procedure: 72 Balb/c mice, male, were divided into 12 groups, 6 mice in each treatment group. In the positive drug control groups: the mice in the FG-4592 treatment groups were orally administered once, at two doses of 10 mg/kg and 50 mg/kg, and the mice in the rhEPO treatment group was intraperitoneaily injected once, at a dose of 100 IU/kg. The compounds of the present disclosure were all orally administered once at a dose of 10 mg/kg. 72 h after the administration, blood was collected from the orbit of all animals, and subjected to EDTA-K2 anticoagulation. Then reticulocytes (RETIC) were counted with an automatic blood cell analyzer.

A further data set addresses hERG channels (Homo sapiens (Human), UniProt Q12809). The data set is described as follows: cell-based. It is filed as cell-based. The following applies: for Inhibitory effect on hERG current at the highest test concentration: human, 30 μM. Here is the method: Whole-cell patch clamp technique was used to record hERG current. A cell suspension was added to a 35 mm Petri dish, and the dish was then placed on an inverted microscope stage. After the adherence of cells, they were perfused with extracellular fluid at a flow rate of 1-2 mL/min. A glass microelectrode was drawn by a microelectrode puller in two steps, and the pipette tip resistance was between 2-5 MΩ. After establishing the whole cell recording, the clamp potential was held at −80 mV, followed by depolarization to +60 mV when given voltage stimulation and then repolarization to −50 mV to elicit hERG tail current. All recordings were performed after the current was stable. Extracellular perfusion administration started from a low concentration, staying for 5-10 min at each concentration until the current was stable, and then cells were further perfused with the next concentration.
For orientation: hERG is a cardiac potassium channel; its block is linked to QT prolongation.

The next data set deals with HIF-2α. The data set is described as follows: Expression of HIF-2α protein in Hep3B cells (western blot, grayscale analysis). It is filed as cell-based, Human. The following applies: for fold induction at 30 µM: Homo sapiens, 2 h, compound at 30 μM, 10 μM and 3 μM, read-out: HIF-2α level of the compound of the present disclosure/HIF-2α level of blank control. The procedure:
(§2) A test compound was dissolved in dimethyl sulfoxide into a 100 mM stock solution, and then was diluted with 0.5% FBS-containing DMEM medium into 30 μM, 10 μM and 3 μM for later use. Human liver cancer cells Hep3B were seeded in a six-well plate at a density of 2.25*10^5 cells/well, 2 mL per well. After cultivation overnight, the cells were treated with compounds at different concentrations for 2 h. The proteins were extracted for western blot and further grayscale analysis.
On the technique in general: A western blot detects proteins with antibodies after separation by electrophoresis.

Another data set deals with HIF-1α. The data set is described as follows: Expression of HIF-1α protein in Hep3B cells (western blot, grayscale analysis). The following applies: for fold induction at 30 µM: Homo sapiens, 2 h, compound at 30 μM, 10 μM and 3 μM, read-out: HIF-1α level of the compound of the present disclosure/HIF-1α level of blank control. It is filed as cell-based, Human. Here is the method:
as §2

Data set [1] has as its system rats with residual kidney. The data set is described as follows: SD rat residual kidney experiment. It is filed as in vivo, SD rats. Details: Hematocrit / Alanine aminotransferase / Glutamic-oxalacetic transaminase: unit not given here. Here is the method: 79 SD rats were subjected to residual kidney surgery after anesthesia (left kidney was resected, one third of the right kidney was left, and the resected kidney part was weighed to confirm the surgical error). After 4 weeks, 45 surviving rats were subjected to blood cell dection and then assigned according to the HCT value 37 rats in good condition were selected and divided into the following groups: Link-118 (5, 10 mg/kg), Link-121 (5, 10 mg/kg), and FG-4592 (10 mg/kg), 6 rats in each treatment group, and 7 in the model group. 4 rats were assigned to the blank control group. The rats were administered three times each week (administered on Monday, Wednesday, and Friday), for 15 times, and blood was taken 24 hours after the last administration (tested by blood routine, blood biochemistry, hepcidin kit).

Setting [2] is: 10 mg/kg p.o., once, 72 h after administration.
Where [3] appears, read: 10 mg/kg, three times each week, 15 times, x ± sd.
Where [4] appears, read: compared with the blank control group.
Setting [5] is: 100 IU/kg i.p., once, 72 h after administration.

Sequence of hERG channels (Q12809 whole entry, the tested form may be a part): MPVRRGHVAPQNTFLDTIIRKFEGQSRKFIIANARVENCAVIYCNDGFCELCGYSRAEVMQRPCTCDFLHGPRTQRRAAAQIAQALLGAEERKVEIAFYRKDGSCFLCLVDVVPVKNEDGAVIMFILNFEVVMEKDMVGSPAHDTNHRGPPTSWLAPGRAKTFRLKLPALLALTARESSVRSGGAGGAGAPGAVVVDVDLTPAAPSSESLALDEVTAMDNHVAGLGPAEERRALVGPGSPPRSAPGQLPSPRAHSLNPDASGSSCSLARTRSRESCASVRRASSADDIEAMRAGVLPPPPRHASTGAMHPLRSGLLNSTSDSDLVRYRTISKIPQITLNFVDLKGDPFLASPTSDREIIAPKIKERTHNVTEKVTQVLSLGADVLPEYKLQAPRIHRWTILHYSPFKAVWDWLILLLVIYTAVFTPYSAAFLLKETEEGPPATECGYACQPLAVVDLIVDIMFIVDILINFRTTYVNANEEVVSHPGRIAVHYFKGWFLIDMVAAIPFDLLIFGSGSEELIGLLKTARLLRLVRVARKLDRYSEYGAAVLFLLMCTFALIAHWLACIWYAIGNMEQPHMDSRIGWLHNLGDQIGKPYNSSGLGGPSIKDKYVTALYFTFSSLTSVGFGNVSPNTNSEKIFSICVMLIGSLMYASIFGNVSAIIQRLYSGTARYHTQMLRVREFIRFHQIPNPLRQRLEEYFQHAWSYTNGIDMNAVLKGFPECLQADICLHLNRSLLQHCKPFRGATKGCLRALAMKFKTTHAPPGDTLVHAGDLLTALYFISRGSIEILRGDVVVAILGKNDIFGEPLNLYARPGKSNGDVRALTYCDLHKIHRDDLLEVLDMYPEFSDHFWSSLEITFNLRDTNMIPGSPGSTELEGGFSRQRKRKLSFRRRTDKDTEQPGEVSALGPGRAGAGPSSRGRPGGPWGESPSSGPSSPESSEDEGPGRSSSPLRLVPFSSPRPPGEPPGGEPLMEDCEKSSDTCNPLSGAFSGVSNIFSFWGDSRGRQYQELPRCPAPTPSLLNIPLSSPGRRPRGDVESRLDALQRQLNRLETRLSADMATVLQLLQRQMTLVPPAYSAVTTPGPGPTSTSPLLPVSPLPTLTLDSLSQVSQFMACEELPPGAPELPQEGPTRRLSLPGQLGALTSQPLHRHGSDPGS
Sequence of CYP1A2 (P05177 whole entry): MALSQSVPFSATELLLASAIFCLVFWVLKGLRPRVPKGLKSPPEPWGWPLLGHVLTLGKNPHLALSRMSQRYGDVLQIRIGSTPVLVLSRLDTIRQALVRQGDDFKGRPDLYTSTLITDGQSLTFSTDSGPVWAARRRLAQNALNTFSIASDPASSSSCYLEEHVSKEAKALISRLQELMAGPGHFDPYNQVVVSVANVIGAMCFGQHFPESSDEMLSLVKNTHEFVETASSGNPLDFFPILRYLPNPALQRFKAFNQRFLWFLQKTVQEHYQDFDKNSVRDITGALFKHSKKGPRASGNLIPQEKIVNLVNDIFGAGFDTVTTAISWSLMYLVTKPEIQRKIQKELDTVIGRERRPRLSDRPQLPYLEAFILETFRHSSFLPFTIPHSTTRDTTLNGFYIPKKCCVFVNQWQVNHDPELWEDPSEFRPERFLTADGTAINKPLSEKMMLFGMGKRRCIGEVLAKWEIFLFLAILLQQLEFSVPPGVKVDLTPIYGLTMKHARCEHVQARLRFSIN
Description for erythropoietin: (2) 30 c57 mice, male, were divided into 6 groups, 5 mice in each treatment group. […] 6 hours after the administration, blood was taken, and plasma was collected for EPO detection with an ELISA kit (R&D Co.).

Regarding `O=C(O)CNC(=O)c1nc(Cl)c2nc(Cl)ccc2c1O` [Link-122, 2-(2,8-dichloro-5-hydroxy-1,7-naphthyridine-6-formamido) acetic acid], the “EPO OD value” in the data set on erythropoietin (10 mg/kg) is “A (A represents 1.0<EPO OD value<1.5)”; in the data set with erythropoietin (50 mg/kg), “B (B represents 1.5<EPO OD value<2)”.

As for `O=C(O)CNC(=O)c1nc(Cl)c2nc(Oc3cccc(Cl)c3)ccc2c1O` [Link-126, 2-(2-(3-chlorophenoxy)-5-hydroxy-8-chloro-1,7-naphthyridine-6-formamido) Acetic Acid], the IC50 against CYP1A2 was over 50 µM; against CYP2C9, over 50 µM; at CYP3A4-M, over 50 µM; on CYP2D6, over 50 µM; on CYP2C19, over 50 µM; against hERG channels, over 30 µM. Further, the “Reticulocytes (RETIC), average” value with reticulocytes (setting [2]) is on record as 5.87. Moreover, the figures for the “EPO OD value” in the data set on erythropoietin (10 mg/kg) and with erythropoietin (50 mg/kg) were “A (A represents 1.0<EPO OD value<1.5)” and “D (D represents EPO OD value>3)”, respectively. The “Inhibitory effect on hERG current at the highest test concentration” value (shortened to “Inhibitory effect on hERG current”) on hERG channels is on record as “far from the IC50 value”.

Consider `O=C(O)CNC(=O)c1nc(Br)c2nc(Oc3ccc(F)cc3)ccc2c1O` [Link-131, 2-(2-(4-fluorophenoxy)-5-hydroxy-8-bromo-1,7-naphthyridine-6-formamido) Acetic Acid], for which, in the data set with HIF-2α, the “HIF-2α protein expression compared with blank control” value is reported as “higher than that of the blank control” and the fold induction at 30 µM is 4.5 to 8.5. Besides, in the data set on HIF-1α, the “HIF-1α protein expression compared with blank control” value is “higher than that of the blank control” and the fold induction at 30 µM fell in the range of 4.5 to 8.5. In addition, the “EPO OD value” in the data set on erythropoietin (10 mg/kg) is reported as “A (A represents 1.0<EPO OD value<1.5)”. The “EPO OD value” in the data set with erythropoietin (50 mg/kg) was “A (A represents 1.0<EPO OD value<1.5)”.

As to `O=C(O)CNC(=O)c1nc(Cl)c2nc(Oc3cccnc3)ccc2c1O` [Link-120, 2-(2-(pyrid-3-yloxy)-5-hydroxy-8-chloro-1,7-naphthyridine-6-formamido) Acetic Acid], the “EPO OD value” in the data set on erythropoietin (10 mg/kg) and in the data set with erythropoietin (50 mg/kg) was “A (A represents 1.0<EPO OD value<1.5)” each time.

In the case of `Cc1nc(C(=O)NCC(=O)O)c(O)c2ccc(Oc3ccccc3)cc12` [FG-4592, reference compound], the fold induction at 30 µM in the data set on HIF-2α was in the range of 8.5 to 10. The Red blood cells in data set [1] (10 mg/kg, three times each week, 15 times, blood 24 hours after last administration, x ± sd) is recorded as 8.26 ± 0.41** 10^12/L. In data set [1] (setting [3]), this compound returned an Alanine aminotransferase of 40.4 ± 3.58, a Glutamic-oxalacetic transaminase of 11620 ± 10.96, a Hematocrit of 47.7 ± 2.19 and a Hemoglobin of 16720 ± 8.47 g/L. In data set [1] (setting [3]), this compound displayed a Hepcidin of 2.59 ± 0.7015 ng/mL. In addition, in data set [1] (setting [4]), the “Effect on glutamic-oxalacetic transaminase” value is on record as “no significant effect” and the “Effect on liver glutamic-pyruvic aminotransferase” value is on record as “no significant effect”. In [1] (compared with the model group), the “Effect on HCT in rats with residual kidney” value is “significantly increase”, the “Effect on HGB in rats with residual kidney” value is “significantly increase”, the “Effect on RBC in rats with residual kidney” value is “significantly increase” and the “Effect on hepcidin in rats with residual kidney” value is given as “significantly inhibit”. Further, the fold induction at 30 µM in the data set with HIF-1α is 8.5 to 10. Moreover, the “Reticulocytes (RETIC), average” value in the data set with reticulocytes (setting [2]) came out at 4.73. Also, the “Reticulocytes (RETIC), average” value in the data set on reticulocytes (50 mg/kg p.o., once, 72 h after administration) amounted to 7.42. Also, the “Reticulocyte counts compared with normal animals” value in the data set on reticulocytes (72 h after single administration, FG4592 statement at 10 mg/kg) was “no significant difference from normal animals”. Also, in the data set on erythropoietin (10 mg/kg), the “EPO OD value” was “A (A represents 1.0<EPO OD value<1.5)”. Moreover, in the data set with erythropoietin (50 mg/kg), the “EPO OD value” was “A (A represents 1.0<EPO OD value<1.5)”.

Consider `O=C(O)CNC(=O)c1nc(Br)c2nc(Oc3cccc(Cl)c3)ccc2c1O` [Link-127, 2-(2-(3-chlorophenoxy)-5-hydroxy-8-bromo-1,7-naphthyridine-6-formamido) Acetic Acid], for which the IC50 at CYP1A2 was 37.9 µM; against CYP2C9 it was over 50 µM; against CYP3A4-M, over 50 µM; against CYP2D6 it was over 50 µM; against CYP2C19, over 50 µM; against hERG channels, over 30 µM. The “Reticulocytes (RETIC), average” value in the data set on reticulocytes (setting [2]) was 5.63. In addition, the “EPO OD value” was “A (A represents 1.0<EPO OD value<1.5)” in the data set with erythropoietin (10 mg/kg) and “D (D represents EPO OD value>3)” with erythropoietin (50 mg/kg). Further, the “Inhibitory effect on hERG current” value at hERG channels is “far from the IC50 value”.

Regarding `CCOc1ccc2c(O)c(C(=O)NCC(=O)O)nc(Cl)c2n1` [Link-134, 2-(2-ethoxy-5-hydroxy-8-chloro-1,7-naphthyridine-6-formamido) Acetic Acid], in the data set with HIF-2α, the “HIF-2α protein expression compared with blank control” value is “higher than that of the blank control” and the fold induction at 30 µM lay within 1 to 4.5. For the same compound, in the data set on HIF-1α, the “HIF-1α protein expression compared with blank control” value is “higher than that of the blank control” and the fold induction at 30 µM fell in the range of 1 to 4.5. The “EPO OD value” in the data set on erythropoietin (10 mg/kg) is reported as “A (A represents 1.0<EPO OD value<1.5)”. Besides, the “EPO OD value” in the data set on erythropoietin (50 mg/kg) is “A (A represents 1.0<EPO OD value<1.5)”.

Turning to `O=C(O)CNC(=O)c1nc(Cl)c2nc(Oc3ccc(Cl)cc3)ccc2c1O` [Link-128, 2-(2-(4-chlorophenoxy)-5-hydroxy-8-chloro-1,7-naphthyridine-6-formamido) Acetic Acid], the IC50 is over 50 µM against CYP1A2; over 50 µM against CYP2C9; over 50 µM at CYP3A4-M; over 50 µM against CYP2D6; over 50 µM against CYP2C19; over 30 µM against hERG channels. For the same compound, the “Reticulocytes (RETIC), average” value in the data set with reticulocytes (setting [2]) worked out at 6.15. The “EPO OD value” was “A (A represents 1.0<EPO OD value<1.5)” with erythropoietin (10 mg/kg) and “D (D represents EPO OD value>3)” in the data set on erythropoietin (50 mg/kg). Also, the “Inhibitory effect on hERG current” value on hERG channels is given as “far from the IC50 value”.

For the compound “rhEPO: positive drug control, intraperitoneally injected once at 100 IU/kg”, in the data set with reticulocytes (setting [5]), the “Reticulocytes (RETIC), average” value is recorded as 6.58; the “Reticulocytes (RETIC), individual animals No. 1-6” value was 5.9 (2×) and 6.6 (2×) and 7.1 and 7.4.

On to `CC(C)(C)C(=O)OCOC(=O)CNC(=O)c1nc(Cl)c2nc(Oc3ccccc3)ccc2c1O` [Link-135, methyl (2-(2-phenoxy-5-hydroxy-8-chloro-1,7-naphthyridine-6-formamido)acetoxy) pivalate], for which the “EPO OD value” in the data set on erythropoietin (10 mg/kg) and in the data set on erythropoietin (50 mg/kg) was “B (B represents 1.5<EPO OD value<2)” throughout.

Turning to `COc1ccc(Oc2ccc3c(O)c(C(=O)NCC(=O)O)nc(Cl)c3n2)cc1` [Link-119, 2-(2-(4-methoxyphenoxy)-5-hydroxy-8-chloro-1,7-naphthyridine-6-formamido) Acetic Acid], the “EPO OD value” with erythropoietin (10 mg/kg) and with erythropoietin (50 mg/kg) was “A (A represents 1.0<EPO OD value<1.5)” each time.

Take `O=c1c(-n2ccnn2)c[nH]n1-c1cc(N2CCOCC2)ncn1` [BAY85-3934, reference compound]: the entries for the “EPO OD value” with erythropoietin (10 mg/kg) and in the data set on erythropoietin (50 mg/kg) were “B (B represents 1.5<EPO OD value<2)” and “D (D represents EPO OD value>3)”, respectively.
